Laboratory results: US20240269143A1, “COMBINATION THERAPY COMPRISING A MAT2A INHIBITOR AND TYPE I PRMT INHIBITOR” (IDEAYA BIOSCIENCES, INC., priority 2021, published 2024)

Experiments:
[1] = system: BxPC-3 tumors; assay: Anti-tumor efficacy in pancreatic xenograft BxPC-3; type: in vivo, mouse; conditions: Day 28
Protocol: The BxPC-3 tumor cell line was maintained in vitro as a monolayer culture in RPMI 1640 medium supplemented with 10% fetal bovine serum at 37° C. in an atmosphere of 5% CO2 in air. The tumor cells were routinely sub-cultured, not to exceed 4-5 passages. The cells growing in an exponential growth phase were harvested and counted for tumor inoculation. Each mouse was inoculated subcutaneously on the right flank with 5 million BxPC-3 tumor cells in 0.1 mL RPMI 1640 and Matrigel mixture (1:1 ratio) for tumor development.
Tumor Volume (TV) was calculated using the following formula: TV (mm^3)=(width×width×length)/2. No dose holidays were provided for during the study and all mice were euthanized following the final dose on Day 28. Tumor growth inhibition (TGI) was calculated by [(TV controlfinal−TV treatedfinal)/(TV controlfinal−TV controlinitial)×100]. TV was analyzed for statistical significance using GraphPad Prism version 9.1.0. Repeated Measures 2-Way ANOVA with Tukey's Multiple Comparisons was utilized, and P-values were presented from the final tumor measurement and were considered statistically significant if less than 0.05. The treatment started when the mean tumor volume reached about 197 mm^3. Mice were then randomly assigned to respective groups so that the mean starting tumor volume was the same among groups. Mice were dosed orally, once per day, with Vehicle, Compound A at 10 mg/kg, Compound B at 9.375 or 18.75 mg/kg, or Compound A at 10 mg/kg and Compound B at 9.375 mg/kg, or Compound A at 10 mg/kg and Compound B at 18.75 mg/kg. The Doses were staggered with Compound A given first and Compound B administrated 2 hours later. Likewise, the Vehicle B (for Compound B, Saline) was administrated to animals 2 hours later than the Vehicle A (for Compound A, 0.5% 400 cps methylcellulose with 0.5% Tween-80 in sterile water).

[2] = system: HCT-116 MTAP WT tumors; assay: Anti-tumor efficacy in HCT-116 MTAP WT mouse xenograft; type: in vivo; conditions: Day fourteen
Protocol: (§1) The effect of Compound A and Compound B as single-agent anti-tumor agents and in combination was assessed in the HCT-116 human colon tumor cell line, MTAP isogenic pair (MTAP proficient (WT) or MTAP-deleted). Cells were expanded in DMEM/F12 GlutaMAX (Fisher Scientific, Catalog Number 10-565-018) with 10% fetal bovine serum. These cells were free of mycoplasma and authenticated as HCT-116 by STR profiling. Two and a half million cells in log growth phase were resuspended in Hanks Balanced Salt Solution containing 50% Matrigel and implanted subcutaneously into the flank of each recipient female CB17/lcr-Prkd^scid/lcrlcoCrl mouse. Mice were housed in microisolator cages with corn cob bedding with additional enrichment consisting of sterile nesting material (Innovive) and Bio-huts (Bio-Serv). Water (Innovive) and diet (Teklad Global 19% Protein Extruded Diet 2919, Irradiated) were provided ad libitum. The environment was maintained on a 12-hour light cycle at approximately 68-72° F. and 40-60% relative humidity.
(§2) Tumor Volume (TV) was calculated using the following formula: TV (mm^3)=(width×width×length)/2. No dose holidays were provided for during the study and all mice were euthanized following the final dose on Day fourteen. Tumor growth inhibition (TGI) was calculated by [(TV controlfinal−TV treatedfinal)/(TV controlfinal−TV controlinitial)×100]. TV was analyzed for statistical significance utilizing GraphPad Prism version 9.1.0. Repeated Measures 2-Way ANOVA with Tukey's Multiple Comparisons was utilized, and P-values were presented from the final tumor measurement and were considered statistically significant if less than 0.05.
(§3) Mean tumor volume at dosing start was approximately 128-145 mm^3, with seven mice randomized to each treatment group. The study design was identical for both models, with the study consisting of six treatment groups. Mice were dosed orally, once per day, with Vehicle, Compound A at 5 mg/kg, Compound B at 9.375 or 18.75 mg/kg, or Compound A at 5 mg/kg and Compound B at 9.375 mg/kg, or Compound A at 5 mg/kg and Compound B at 18.75 mg/kg. The doses were staggered with Compound A given first and Compound B administered 2 hours later. Likewise, the Vehicle B (for Compound B, Saline) was administered to animals 2 hours later than the Vehicle A (for Compound A, 0.5% 400 cps methylcellulose with 0.5% Tween-80 in sterile water).

[3] = system: HCT-116 MTAP-deleted tumors; assay: Anti-tumor efficacy in HCT-116 MTAP-deleted mouse xenograft; type: in vivo; conditions: Day fourteen
Protocol: as §1, §2, §3

[4] = system: KP4 pancreatic cancer cell line; assay: 5-day proliferation screening, combination synergy (HSA, Loewe, Bliss); type: cell-based; conditions: HSA and Loewe models, single agent activity of Compound B
Protocol: (§4) A 4-day proliferation screening was done in colorectal cancer lines HCT116 and HCT116 MTAP−/− (CRISPR Knock-out), and a 5-day proliferation screening was performed in pancreatic cancer cell lines BxPC3, KP4 and lung cancer line, NCI-H838. The nuclei were fluorescent tagged for all the cell lines. Combinations included a 5-fold titration from 10 uM for MAT2Ai (Compound A) and 5-fold titration from 20 uM for Type1 PRMTi (Compound B). Cells were plated at a seeding density 1000 cells/well in a 96-well format 24h before treatment and treated the following day with an 8×8 double matrix titration (five-fold dilution series) of Compound A (MAT2Ai) and Compound B (Type I PRMTi). Triplicates were run for each data point. Nuclear count was measured at the end point using the IncuCyte S3 Live-Cell Analysis System. Average fluorescence of cells treated with DMSO was set to 100% and the % viable cells were calculated accordingly. Dose response curves for single drug activity and drug-drug synergy for combinations were generated using Combenefit software. Synergy was evaluated using HSA, Loewe, and Bliss models.

[5] = system: NCI-H838 lung cancer line; assay: as above; type: cell-based; conditions: HSA and Loewe models, single agent activity of Compound B
Protocol: as §4

[6] = Compound B 9.375 mg/kg orally once per day
[7] = Compound B 18.75 mg/kg orally once per day
[8] = Compound A 10 mg/kg orally once per day
[9] = Compound A 5 mg/kg orally once per day

Structure (SMILES)	Final TV (mean) [1, 6] [mm^3]	TGI (tumor growth inhibition) [1, 6] [%]	Final TV (mean) [1, 7] [mm^3]	TGI (tumor growth inhibition) [1, 7] [%]	Final TV (mean) [2, 6] [mm^3]	TGI (tumor growth inhibition) [2, 6] [%]	Final TV (mean) [2, 7] [mm^3]	TGI (tumor growth inhibition) [2, 7] [%]	Final TV (mean) [3, 6] [mm^3]	TGI (tumor growth inhibition) [3, 6] [%]	Final TV (mean) [3, 7] [mm^3]	TGI (tumor growth inhibition) [3, 7] [%]	concentration of Compound B above which modest cytotoxicity observed [4]	concentration of Compound B above which modest cytotoxicity observed [5]	Final TV (mean) [1, 8] [mm^3]	TGI (tumor growth inhibition) [1, 8] [%]	Final TV (mean) [2, 9] [mm^3]	TGI (tumor growth inhibition) [2, 9] [%]	Final TV (mean) [3, 9] [mm^3]	TGI (tumor growth inhibition) [3, 9] [%]
CCOCC1(COCC)CCC(c2n[nH]cc2CN(C)CCNC)CC1 [Compound B]	638	44	415	72	928	13	907	16	441	4	357	30	above 0.8 uM	above 0.16 uM	–	–	–	–	–	–
Nc1nc(=O)n(-c2ccccc2Cl)c2nc(C(F)(F)F)ccc12 [Compound A]	–	–	–	–	–	–	–	–	–	–	–	–	–	–	686	37	539	56	232	68
